Experimental data taken from patent EP1000039B1 (Wyeth Holdings Corporation, priority 1997, dated 1999).
Values after ≈ are worked out from the molar mass of the structure shown. Read-outs that look alike come from different tables or passages of the source.

Experiments:
A431 = assay: Inhibition of Cancer Cell Growth (Sulforhodamine B); assay type: cell-based, Human; details: for IC50: Homo sapiens, A-431, 48 hours exposure, read-out: Inhibition of Cancer Cell Growth as Measured by Cell Number (IC50) A431
Description: (§1) After 48 hours exposure to test compounds, cells were fixed with trichloroacetic acid, and stained with Sulforhodamine B. After washing with trichloroacetic acid, bound dye was solubilized in 10 mM Tris base and optical density was determined using plate reader. Under conditions of the assay the optical density is proportional to the number of cells in the well. […] The test procedure is described in details by Philip Skehan et. al. J.Natl. Canc. […]

A2780S = assay: as above; assay type: cell-based, Human; details: 48 hours exposure; for IC50: Homo sapiens, read-out: Inhibition of Cancer Cell Growth as Measured by Cell Number (IC50) A2780S
Description: as §1

SW620 = assay: as above; assay type: cell-based, Human; details: for IC50: Homo sapiens, SW-620, 48 hours exposure, read-out: Inhibition of Cancer Cell Growth as Measured by Cell Number (IC50) SW620
Description: as §1

LOX = assay: as above; assay type: cell-based, Human; details: 48 hours exposure; for IC50: Homo sapiens, read-out: Inhibition of Cancer Cell Growth as Measured by Cell Number (IC50) LOX
Description: as §1

MCF7 = assay: as above; assay type: cell-based, Human; details: 48 hours exposure; for IC50: Homo sapiens, read-out: Inhibition of Cancer Cell Growth as Measured by Cell Number (IC50) MCF7
Description: as §1

A2780DDP = assay: as above; assay type: cell-based, Human; details: 48 hours exposure; for IC50: Homo sapiens, read-out: Inhibition of Cancer Cell Growth as Measured by Cell Number (IC50) A2780DDP
Description: as §1

MB435 = assay: as above; assay type: cell-based, Human; details: 48 hours exposure; for IC50: Homo sapiens, read-out: Inhibition of Cancer Cell Growth as Measured by Cell Number (IC50) MB435
Description: as §1

SKBR3 = assay: as above; assay type: cell-based, Human; details: for IC50: Homo sapiens, SK-BR-3, 48 hours exposure, read-out: Inhibition of Cancer Cell Growth as Measured by Cell Number (IC50) SKBR3
Description: as §1

[1] = molecular target: T1, His-tagged cytoplasmic domain of EGFR (Homo sapiens, UniProt P00533); assay: Inhibition of Epidermal Growth Factor Receptor Kinase (EGF-R) using recombinant enzyme, RR-SRC peptide phosphorylation; assay type: biochemical
T1 construct: containing the EGFR cDNA encoding amino acids 645 - 1186 preceded by Met-Ala-(His)6; Met-Ala-(His)6 (N); made in house; host or cells: Sf9 insect cells, recombinant baculovirus vHcEGFR52
Description: The enzyme used in this assay is the His-tagged cytoplasmic domain of EGFR. […] Sf9 cells in 100 mm plates were infected at an moi of 10 pfu/cell and cells were harvested 48 h post infection. A cytoplasmic extract was prepared using 1% Triton X-100 and applied to Ni-NTA column. After washing the column with 20 mM imidazole, HcEGFR was eluted with 250 mM imidazole (in 50 mM Na2HPO4, pH 8.0, 300 mM NaCl). Fractions collected were dialyzed against 10 mM HEPES, pH 7.0, 50 mM NaCl, 10% glycerol, 1ug/mL antipain and leupeptin and 0. 1 mM Pefabloc SC. The protein was frozen in dry ice/methanol and stored -70°C.
For the enzyme reaction, 10 uL of each inhibitor (at various concentrations) were added to each well of a 96-well plate. To this was added 3 uL of enzyme (1: 10 dilution in 10mM HEPES, pH 7.4 for final conc. of 1:120). This was allowed to sit for 10 min on ice and was followed by the addition of 5 ul peptide (80 uM final conc.), 10ul of 4X Buffer (Table A), 0.25 uL ^33P-ATP and 12 uL H2O. The reaction was allowed to run for 90 min at room temperature and was followed by spotting the entire volume on to precut P81 filter papers. The filter discs were washed 2X with 0.5% phosphoric acid and radioactivity was measured using a liquid scintillation counter.

[2] = recombinant enzyme, average of the number of tests, read-out: IC50

T1 sequence (P00533 669-1210): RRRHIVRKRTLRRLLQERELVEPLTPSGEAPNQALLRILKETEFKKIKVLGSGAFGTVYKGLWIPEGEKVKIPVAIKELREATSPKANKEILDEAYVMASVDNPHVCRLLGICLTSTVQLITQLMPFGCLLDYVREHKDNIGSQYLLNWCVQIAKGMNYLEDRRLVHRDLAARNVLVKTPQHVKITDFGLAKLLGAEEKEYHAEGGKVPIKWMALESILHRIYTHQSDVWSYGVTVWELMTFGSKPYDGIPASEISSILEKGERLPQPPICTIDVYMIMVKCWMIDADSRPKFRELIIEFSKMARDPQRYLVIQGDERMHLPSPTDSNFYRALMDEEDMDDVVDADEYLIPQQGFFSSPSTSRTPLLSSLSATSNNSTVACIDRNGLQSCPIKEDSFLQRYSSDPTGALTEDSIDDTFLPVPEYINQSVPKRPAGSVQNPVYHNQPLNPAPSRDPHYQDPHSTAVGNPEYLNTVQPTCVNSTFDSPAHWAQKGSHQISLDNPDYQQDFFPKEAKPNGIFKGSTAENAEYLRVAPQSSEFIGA

Compound	Inhibition of Cancer Cell Growth as Measured by Cell Number (IC50) A431 (A431; 48 hours exposure) [µg/mL]	Inhibition of Cancer Cell Growth as Measured by Cell Number (IC50) A2780S (A2780S) [µg/mL]	Inhibition of Cancer Cell Growth as Measured by Cell Number (IC50) SW620 (SW620; 48 hours exposure) [µg/mL]	Inhibition of Cancer Cell Growth as Measured by Cell Number (IC50) LOX (LOX) [µg/mL]	Inhibition of Cancer Cell Growth as Measured by Cell Number (IC50) MCF7 (MCF7) [µg/mL]	Inhibition of Cancer Cell Growth as Measured by Cell Number (IC50) A2780DDP (A2780DDP) [µg/mL]	Inhibition of Cancer Cell Growth as Measured by Cell Number (IC50) MB435 (MB435) [µg/mL]	Inhibition of Cancer Cell Growth as Measured by Cell Number (IC50) SKBR3 (SKBR3; 48 hours exposure) [µg/mL]	IC50 [1, 2] [nM]	IC50 (A431) [µg/mL]	IC50 (A2780S) [µg/mL]	IC50 (SW620) [µg/mL]	IC50 (LOX) [µg/mL]	IC50 (MCF7) [µg/mL]	IC50 (A2780DDP) [µg/mL]	IC50 (MB435) [µg/mL]	IC50 (SKBR3) [µg/mL]	IC50 [1] [nM]
4-Diethylamino-but-2-enoic acid [4-(3-bromo-phenylamino)-quinazolin-6-yl]-amide [Example 67]	0.01	22	52	46	59	43	45	<0.01										
O=C(C#CCCl)Nc1ccc2ncnc(Nc3cccc(Br)c3)c2c1 [Example 12, 4-Chloro-but-2-ynoic acid [4-(3-bromo-phenylamino)-quinazolin-6-y]-amide]									5	0.03 (≈ 0.0722 µM)	0.03 (≈ 0.0722 µM)	0.06 (≈ 0.144 µM)	0.04 (≈ 0.0962 µM)	0.49 (≈ 1.18 µM)	0.07 (≈ 0.168 µM)	0.39 (≈ 0.938 µM)	< 0.01	
CC(C)(C)[Si](C)(C)OCC#CC(=O)Nc1ccc2ncnc(Nc3cccc(Br)c3)c2c1 [Example 15, 4-(tert-Butyl-dimethyl-silanyloxy)-but-2-ynoic acid [4-(3-bromo-phenylamino)quinazolin-6-yl]-amide]									6	0.04 (≈ 0.0782 µM)	0.02 (≈ 0.0391 µM)	0.02 (≈ 0.0391 µM)	0.03 (≈ 0.0587 µM)	0.45 (≈ 0.88 µM)	0.05 (≈ 0.0978 µM)	0.42 (≈ 0.821 µM)	0.38 (≈ 0.743 µM)	
O=C(C#CCN1CCOCC1)Nc1ccc2ncnc(Nc3cccc(Br)c3)c2c1 [Example 19, 4-Morpholin-4-yl-but-2-ynoic acid [4-(3-bromo-phenylamino)-quinazolin-6-yl]-amide]										0.02 (≈ 0.0429 µM)	4.37 (≈ 9.37 µM)	1.1 (≈ 2.36 µM)	3.55 (≈ 7.61 µM)	6.36 (≈ 13.6 µM)	3.32 (≈ 7.12 µM)	5.95 (≈ 12.8 µM)	0.003 (≈ 0.00643 µM)	50
COCC#CC(=O)Nc1ccc2ncnc(Nc3cccc(Br)c3)c2c1 [Example 23, 4-Methoxy-but-2-ynoic acid [4-(3-bromo-phenylamino)-quinazolin-6-yl]-amide]									0.31	0.05 (≈ 0.122 µM)	0.12 (≈ 0.292 µM)	0.06 (≈ 0.146 µM)	0.02 (≈ 0.0486 µM)	0.5 (≈ 1.22 µM)	0.06 (≈ 0.146 µM)	0.8 (≈ 1.95 µM)	0.06 (≈ 0.146 µM)	
CCN1CCN(CC#CC(=O)Nc2ccc3ncnc(Nc4cccc(Br)c4)c3c2)CC1 [Example 28, 4-(4-Ethyl-piperazin-1-yl)-but-2-ynoic acid [4-(3-bromophenylamino)-quinazolin-6-yl]-amide]										0.6 (≈ 1.22 µM)	0.84 (≈ 1.7 µM)	2.38 (≈ 4.82 µM)	1.94 (≈ 3.93 µM)	3.09 (≈ 6.26 µM)	0.56 (≈ 1.13 µM)	1.61 (≈ 3.26 µM)	0.1 (≈ 0.203 µM)	5.5
COCCN(CC#CC(=O)Nc1ccc2ncnc(Nc3cccc(Br)c3)c2c1)CCOC [Example 31, 4-[Bis-(2-methoxy-methyl]-amino]-but-2-ynoic acid [4-(3-bromophenylamino)-quinazolin-6-yl]-amide]									2	0.01 (≈ 0.0195 µM)	0.2 (≈ 0.39 µM)	0.4 (≈ 0.781 µM)	0.5 (≈ 0.976 µM)		0.6 (≈ 1.17 µM)	0.7 (≈ 1.37 µM)	< 0.01	
CN1CCN(CC#CC(=O)Nc2ccc3ncnc(Nc4cccc(Br)c4)c3c2)CC1 [Example 34, 4-(4-Methyl-piperazin-1-yl]-but-2-ynoic acid [4-(3-bromophenylamino)-quinazolin-6-yl]-amide]									35									
COCCN(C)CC#CC(=O)Nc1ccc2ncnc(Nc3cccc(Br)c3)c2c1 [Example 37]									4.5									
